The results in this text go back to US8883415B2, “Aza-benzazolium containing cyanine dyes” (Life Technologies Corporation, priority 1999, dated 2014).

The test system of series [1] is double-stranded DNA. Nature of the series: Detecting double-stranded DNA in solution (fluorescence microplate reader). Type of series: binding. The note with it: Excitation 540 nm/Emission 570 nm. As for the experimental part:
Samples containing 0.1 ng/mL to 1 microgram/mL double-stranded DNA are prepared in 10 mM Tris-HCl, 1 mM EDTA, pH 7.5. The selected dye of the invention is dissolved in DMSO at a concentration of 1-10 mM and then diluted into the same buffer at a concentration sufficient to achieve final optical densities of 0.1 and 0.01 at 500 nm, 530 nm, 540 nm or 560 nm. Equal volumes (100 microliters each) of DNA sample solution and dye solution at each concentration are combined and mixed gently at room temperature in a microplate well.
Samples are allowed to equilibrate for 5-60 minutes, protected from light, and the fluorescence of the sample is measured using a fluorescence microplate reader. DNA concentration is determined by comparison of the sample fluorescence with a standard curve obtained with that dye for each dye concentration. The sensitivity limit of several dyes in this assay is shown (Table 5).

In series [2] the test system is double-stranded DNA. Nature of the series: Detecting double-stranded DNA in the presence of single-stranded DNA. Type of series: binding. The note with it: nucleic acids 2 micrograms/mL; dye 1 micromolar; excitation 540 nm, emission 570 nm. As for the experimental part:
Samples containing nucleic acids at a concentration of 2 micrograms/mL are combined with Compound 16, Compound 22, or Compound 24 at a final dye concentration of 1 micromolar in 10 mM Tris-HCl, 1 mM EDTA, pH 7.5, and mixed gently. The resulting mixture is allowed to incubate for 5-60 minutes at room temperature, protected from light, and sample fluorescence is measured using a fluorescence microplate reader, with excitation at 540 nm and emission at 570 nm. […] If, however, the dye concentration is reduced relative to the concentration of single-stranded nucleic acids, the fluorescence upon binding those nucleic acids increases relative to that of the double-stranded DNA-dye complex. Thus the assay is always performed in sufficient dye excess.

The subject of series [3] is double-stranded bacteriophage λ cl857 DNA that is digested with HindIII restriction endonuclease. Nature of the series: Detecting nucleic acids in gels. Type of series: binding. As to conditions: 1 micromolar dye. As for the experimental part: DNA samples are loaded onto agarose or polyacrylamide gels and electrophoresed using standard conditions. Selected dyes of the invention are dissolved in DMSO at a concentration of 1-10 micromolar and diluted into 0.5×TBE buffer to a final concentration of 1 micromolar dye. Gels are incubated for 20-90 minutes in this staining solution, with gentle agitation, at room temperature, protected from light. Nucleic acids are visualized by transillumination at 300 nm, followed by direct visual detection or photography using Polaroid black-and-white print film. Nucleic acids are alternatively visualized by scanning using a FMBIO II laser scanner with a 532 nm frequency-doubled YAG laser source or a charge-coupled device camera system coupled with an ultraviolet (300 nm) light source, or a visible light transilluminator.

Series [4] has the same test system. Nature of the series: Detecting nucleic acids in gels. Type of series: binding. As to conditions: POLAROID 667 B&W film; FOTODYNE 254 nm epi.; 1 micromolar dye.
In series [5] the test system is 18-base oligodeoxynucleotide sequencing primer. The experiment in a line: Detecting oligonucleotides in solution. As to conditions: Excitation 540 nm/Emission 570 nm. The class given is binding. As for the experimental part:
Selected dyes of the invention are dissolved in DMSO at 1-10 micromolar concentration, then diluted into 10 mM Tris-HCl, 1 mM EDTA, pH 7.5 to a final optical density of 0.1 or 0.01 at 530 nm or 540 nm. The resulting dye solutions are combined with an equal volume of an 18-base oligodeoxynucleotide sequencing primer solution at concentrations of 0.1 ng/mL to 1 microgram/mL in the same buffer. The resulting mixture is mixed gently and incubated for 5-60 minutes at room temperature, protected from light, and the sample fluorescence is measured in a fluorescence microplate reader.

Series [6] has as its system Escherichia coli ribosomal RNA. Nature of the series: Detecting RNA in solution. The class given is binding. As to conditions: Excitation 540 nm/Emission 570 nm. As for the experimental part: Selected dyes of the invention are dissolved in DMSO at 1-10 micromolar concentration, then diluted into 10 mM Tris-HCl, 1 mM EDTA, pH 7.5 to a final optical density of 0.1 or 0.01 at 530 nm or 540 nm. These dye solutions are combined with an equal volume of Escherichia coli ribosomal RNA at concentrations ranging from 0.25 ng/mL to 1 microgram/mL in microplate wells. The resulting mixtures are mixed gently and incubated for 5-60 minutes at room temperature, protected from light, and the sample fluorescence is measured.

The test system of series [7] is proteins. The experiment in a line: Detection of proteins in SDS-polyacrylamide gels. Type of series: binding. The note with it: 1-3 μM dye in 7.5% acetic acid. As for the experimental part:
The pure protein or mixture of proteins of interest is prepared in Loading Buffer (50 mM Tris-HCl, pH 6.8, 2% SDS, 10% glycerol, and 0.015% bromophenol blue). Dithiothreitol is added to each sample, to a final concentration of 0.1 M. The samples are heated for 4-5 minutes at 90-95 °C and loaded onto a 15% Tris-glycine polyacrylamide mini- or full-sized gel containing 0.05%-0.1% SDS, with a 4% stacking gel. The gel is electrophoresed under standard conditions, in a standard Tris-glycine buffer containing 0.05%-0.1% SDS. The resulting gel is transferred to a small staining dish containing a 1-3 μM solution of Compound 25 in 7.5% acetic acid (in water). The staining solution is then covered with foil to protect it from room light and gently agitated for 45 minutes-1 hour. […] The gel is then removed from the staining dish, rinsed briefly in 7.5% acetic acid and transferred directly to a UV-transilluminator. The gel, with the stained protein bands is photographed using 300 nm transillumination and black and white POLAROID 667 print film with a Wratten 9 gelatin filter. […] Proteins appear as white bands on a grey to black background in the POLAROID photograph.

For series [8], the system named is DNA. The experiment in a line: Excitation and emission wavelengths when associated with DNA. The class given is physicochemical.
Series [9] concerns Jurkat human T-cell leukemia cells. The experiment in a line: Detection of apoptosis by flow cytometry. Type of series: cell-based. The note with it: 1.5 μM; 30 minutes on ice; 488 nm excitation. As for the experimental part:
A 1 mM solution of Compound 27 in DMSO is prepared. Jurkat human T-cell leukemia cells are treated with 10 μM camptothecin to induce apoptosis. A sample of the cells (1×10^8 cells/mL) is incubated with enough of the Compound 27 stock solution to give a final dye concentration of 0.1 μM, and sufficient propidium iodide to give a final concentration of 1.5 μM. After incubating for 30 minutes on ice, the cell samples are analyzed on a FacsVantage flow cytometer using 488-argon laser excitation, with emission at 530/30 and 675/20. Apoptotic cells are compared to control cells that were incubated with the same final concentration of DMSO used in the staining solution.
A general note: In flow cytometry, cells or beads pass a laser one at a time.

Series [10] deals with bovine serum albumin (Bos taurus, UniProt P02769). Nature of the series: Detecting proteins in solution. The class given is binding. As to conditions: 2 micromolar dye, 0.05% SDS; either 10 minutes at 90° C. or 5-60 minutes at room temperature. The method, then: Compound 51 and Compound 44 are dissolved in DMSO at 1-10 mM and then diluted into 10 mM Tris-HCl, 1 mM EDTA, pH 7.5, containing 0.05% sodium dodecyl sulfate, to a final concentration of 2 micromolar. This dye solution is combined with samples containing bovine serum albumin at 100 ng/mL to 10 micrograms/mL. Samples are optionally incubated for 10 minutes at 90° C. and then cooled to room temperature, or are incubated for 5-60 minutes at room temperature. Fluorescence is measured using a fluorescence microplate reader with excitation at 540 nm and emission at 590 nm for Compound 44 and with excitation at 600 nm and emission at 670 nm for Compound 51. The fluorescence signal obtained from Compound 44 or 51 in buffer alone (control) is subtracted from the fluorescence recorded for the protein-containing samples in order to determine the intensity of the signal that is due to the presence of protein. Protein concentrations are then determined by comparison of the signal intensity thus obtained with the signals obtained using a dilution series of known concentration prepared using either the same protein or a protein standard, such as bovine serum albumin. The sensitivity limit for either dye under either condition is about 100 ng/mL bovine serum albumin (FIGS. 3 and 4).
Chain of bovine serum albumin (P02769 25-607): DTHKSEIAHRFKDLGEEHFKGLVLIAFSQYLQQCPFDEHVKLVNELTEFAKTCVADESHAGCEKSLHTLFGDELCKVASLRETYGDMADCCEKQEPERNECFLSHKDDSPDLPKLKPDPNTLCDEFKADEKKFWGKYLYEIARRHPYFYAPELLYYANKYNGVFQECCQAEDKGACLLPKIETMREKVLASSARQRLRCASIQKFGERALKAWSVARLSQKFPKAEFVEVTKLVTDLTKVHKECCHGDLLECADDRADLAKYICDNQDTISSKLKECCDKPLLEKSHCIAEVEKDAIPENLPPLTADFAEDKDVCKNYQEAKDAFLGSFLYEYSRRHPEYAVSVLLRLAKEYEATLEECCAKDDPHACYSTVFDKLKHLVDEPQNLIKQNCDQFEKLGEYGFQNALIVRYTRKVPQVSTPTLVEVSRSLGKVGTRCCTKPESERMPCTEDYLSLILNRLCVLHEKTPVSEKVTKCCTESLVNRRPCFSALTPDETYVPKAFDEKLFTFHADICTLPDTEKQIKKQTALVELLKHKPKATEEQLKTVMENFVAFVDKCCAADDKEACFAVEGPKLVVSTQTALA

The mark [11] stands for this setting: BOEHRINGER MANNHEIM LUMIIMAGER CCD, 300 nm trans., 520 nm em.
Where [12] appears, read: BOEHRINGER MANNHEIM LUMIIMAGER CCD, 300 nm trans., 545 nm em.
Setting [13] is: HITACHI FMBIO II laser scanner, 532 nm freq.-doubled YAG laser.
Setting [14] is: POLAROID 667 B&W film, DARK READER visible light box.
The mark [15] stands for this setting: POLAROID 667 B&W film, FOTODYNE 300 nm trans.

“Also recorded” adds a separate entry of the source.

Consider `CCN(CC)Cc1ccc(C2=C/C(=C\c3nc4c(ccc[n+]4C)o3)c3ccccc3N2C)cc1.[I-]` [Compound 22], for which the “Sensitivity Limit, High dye concentration (0.1 OD)” value (“Sensitivity Limit … (0.1 OD)” below) in series [1] is 10 ng/mL. Further, the “Sensitivity Limit, Low dye concentration (0.01 OD)” value (“Sensitivity Limit … (0.01 OD)” for short) in [1] is 1.0 ng/mL. Also, the “Preferential fluorescent staining of double-stranded DNA in the presence of single-stranded DNA and RNA” value (from here on “Preferential fluorescent staining”) in series [2] is “preferential fluorescent staining of double-stranded DNA; also recorded: detected preferentially”. Also, the “Sensitivity for detecting double-stranded DNA in agarose gels” value (from here on “Sensitivity … in agarose gels”) was 830 pg in series [3] (setting [11]); 50 pg in series [3] (setting [12]); 7 pg in series [3] (setting [13]); 60 pg in series [3] (setting [14]); 120 pg in series [3] (setting [15]); 30 pg in series [4].
Take `CN1C(c2ccccc2)=C/C(=C\c2nc3c(ccc[n+]3C)o2)c2ccccc21.[I-]` [Compound 16]: the “Sensitivity Limit … (0.1 OD)” value in [1] was less than 10 ng/mL. Also, the “Sensitivity Limit … (0.01 OD)” value in series [1] stood at 1.0 ng/mL. Besides, the “Preferential fluorescent staining” value in series [2] is “preferential fluorescent staining of double-stranded DNA; also recorded: detected preferentially”. Also, the “Sensitivity … in agarose gels” value in series [3] (setting [11]) came to 210 pg; in [3] (setting [12]) it was 50 pg; in series [3] (setting [13]), 25 pg; in series [3] (setting [14]) it was 240 pg; in series [3] (setting [15]) it was 120 pg; in series [4], 30 pg.
As to `CC[N+](C)(CC)Cc1ccc(C2=C/C(=C\c3nc4c(ccc[n+]4C)o3)c3cc(OC)ccc3N2C)cc1` [Compound 25], the “Sensitivity Limit … (0.1 OD)” value in [1] was less than 10 ng/mL; in series [5], less than 10 ng/mL; in [6], 200 ng/mL. Besides, the figures for the “Sensitivity Limit … (0.01 OD)” value in [1], in series [5] and in series [6] were 0.5 ng/mL, more than 10 ng/mL and 1.2 ng/mL, respectively. Besides, the “Sensitivity … in agarose gels” value in series [3] (setting [11]) amounted to 1700 pg; in series [3] (setting [12]), 100 pg; in series [3] (setting [13]), 25 pg; in [3] (setting [14]), 240 pg; in series [3] (setting [15]), 120 pg; in series [4], 120 pg. In addition, the “Visual appearance of stained protein bands” value in series [7] (300 nm transillumination) is listed as “brightly fluorescent orange bands”. Further, in series [7] (after 10 minutes), the “Visibility of protein bands in stained gel” value is recorded as “protein bands are readily apparent”.
Regarding `CN1C=C/C(=C\C(=C\c2sc3ccccc3[n+]2C)c2ccccc2)c2ccccc21` [Compound 60], in [8], the Emission wavelength was 659 nm and the Excitation wavelength is reported as 642 nm.
As to `CC[N+](C)(CC)CCC[n+]1c(-c2ccccc2)c2cc(N)ccc2c2ccc(N)cc21.[I-].[I-]` [propidium iodide, reference compound], the Cells stained entry in series [9] is “Late stage apoptotic and necrotic cells are stained”.
Consider `CC[N+](C)(CC)Cc1ccc(C2=C/C(=C\c3nc4c(ccc[n+]4C)o3)c3ccccc3N2C)cc1` [Compound 24], for which the “Sensitivity Limit … (0.1 OD)” value in series [1] was determined as 10 ng/mL. Moreover, in [1], the “Sensitivity Limit … (0.01 OD)” value turned out to be 5.0 ng/mL. The “Preferential fluorescent staining” value in [2] is listed as “detected preferentially”. Also, the “Sensitivity … in agarose gels” value was 420 pg in series [3] (setting [11]); 50 pg in series [3] (setting [12]); 5 pg in [3] (setting [13]); 120 pg in [3] (setting [14]); 60 pg in [3] (setting [15]); 30 pg in series [4].
For `CCCCC1=C/C(=C\c2nc3c(cc(Br)c[n+]3C)s2)c2ccccc2N1c1ccccc1.[I-]` [Compound 44], the “Sensitivity limit for bovine serum albumin” value in [10] is “about 100 ng/mL”.
In the case of `CN1C(c2ccccc2)=C/C(=C\C=C\c2nc3c(ccc[n+]3C)o2)c2ccccc21.[I-]` [Compound 51], the “Sensitivity limit for bovine serum albumin” value in series [10] is listed as “about 100 ng/mL”.
